Legend:
[1] = Cell viability for BIA and analogues, HT1080 cell line; format: cell-based; conditions: human, HT1080 fibrosarcoma cells; for viability at 5 µM: HT1080, 5 uM; for viability at 10 µM: HT1080, 10 uM
Protocol: HT1080 MDA-MB-231, SKBR3 and MCF7 cell lines were cultured in a 37° C., 5% CO2 incubator in a medium with 10% Fetal Bovine Serum, 1% penicillin and streptomycin (100 U) added to DMEM.
(§1) The compound prepared in Example 15 was treated with HT1080 fibrosarcoma cell line at 5 μM and 10 μM and cell viability was measured. In addition, the compound prepared in Example 15 on the DU145 prostate cancer cell line was treated with 10 μM, 20 μM, and 30 μM and cell viability was measured (see Table 2, Table 3).

[2] = Cell viability for BIA and analogues, DU145 cell line; format: cell-based; conditions: human; for viability at 10 µM: DU145, 10 uM; for viability at 20 µM: DU145, 20 uM; for viability: DU145, 50 rpm
Protocol: as §1

[3] = tested on: AKT serine phosphorylation (S473); assay: AKT phosphorylation by Western blotting; format: cell-based; conditions: BIA analogues, 10 μM
Protocol: This is AKT signaling key to cancer cell growth, and BIA and its analogues tend to inhibit it. Only representative experimental results were presented. Data were expressed as mean±SD. After one-way ANOVA, Tukey's post hoc test is conducted.
After cell recovery, cell lytic buffer (10 mM Tris-Cl (pH 7.4), 5 mM EDTA, 130 mM NaCl, 1% Triton X-100) and protease inhibitor mix protease inhibitor cocktail (protease inhibitor cocktail and phosphatase inhibitor cocktail) were added and left at 4° C. for 30 minutes. After breaking the cells with ultrasound, they were centrifuged at 13,000× g at 4° C. for 30 minutes, and then the supernatant was taken, and the concentration was quantified using a protein quantification kit (Bio-Rad Laboratories, Hercules, CA, USA). 20 ug of the obtained protein was electrophoresis with polyacrylamide gel electrophoresis (SDS-PAGE) followed by electrotransfer to PVDF membrane (Bio-Rad). The membrane was blocked at room temperature for 1 hour with a TBS-T solution (20 mM Tris (pH 7.5), 137 mM NaCl, 0.05% Triton X-100) containing 5% skim milk. Then, after switching to a solution containing the primary antibody, it was reacted at 4° C. The membrane after the reaction was washed three times with TBS-T solution, reacted with a secondary antibody, and then luminesced using an ECL kit and autoradiography. […]

SARS-CoV2 virus = assay: MTT cell viability of Vero E6 cells infected with SARS-CoV2; format: cell-based; conditions: Severe acute respiratory syndrome coronavirus 2, Vero C1008, 24 h, Vero E6, SARS-CoV2 0.1 MOI, 500 nM, 24 hours after treatment; control DMSO-S 66.52±2.28%
Protocol: Vero E6 cells, monkey kidney cell masters, were dispensed at 1×10^4 cells/well per well in 96 well plates and incubated at 37° C., 5% CO2 incubators for 24 hours. SARS-CoV2 to infect Vero E6 cells was S ARS-CoV 43326 distributed from the National Pathogen Resource Bank, and DMEM (2% FBS, 1% antibiotic-antimycotic) medium was dispensed at 100 μL/well to infect 0.1 MOI. For 1 hour The virus was removed after 1 hour of infection in a 37° C., 5% CO2 incubator.
Next, samples prepared so that BIA or analogue compounds were finally 500 nM were dispensed 100 μL/well, including the culture medium, and then treated in a 37° C., 5% CO2 incubator for 24 hours. In the same way, the group treated with 2 μM, 5 μM, or 10 μM of Remdesivir (Rem) was a positive control.
Check the condition of the cells, add 100 μL/well of 0.5 mg/ml MTT solution, react in a 37° C., 5% CO2 incubator for 4 hours, wash out the media, and DMSO to the cells by 100 μL/well After sufficient dissolution, absorbance was measured at 540 nm with a plate reader to evaluate cell viability.
To confirm the possibility of viral prevention and therapeutic effects of BIA and its analogue compounds, 500 nM treatment of BIA analogue at the same time as viral infection, and then MTT assay whether the viability of cells against viral infection is improved after 24 hours. The results confirmed are shown in the graph of FIG. 82.

BI-1 (TMBIM6) = assay: TMBIM6-GCaMP3 fluorescence, calcium released through BI-1; format: cell-based; conditions: 10 μM, compared with DMSO control
BAL inflammatory cells = assay: Aspergillus-infected asthmatic mouse model, BAL cells and lung histology; format: in vivo; conditions: asthma-inducing group; BIA 0.1 mg/kg and 0.01 mg/kg, IC87114 1 mg/kg, intratracheal
From the text: FIG. 80A and FIG. 80B show mice that were infected with aspergillus with or without BIA, or IC87114, fixing the tissue to 4% formalin, injecting paraffin to make blocks, and then cutting into 4 μm thick to react to buffer and performing hematoxylin-eosin staining. The observation result (A) and the observation result (B) by PAS staining are shown.
The result is quantified by counting the total number of cells of living BAL fluid, excluding dead cells stained in trypan blue.
A. fumigatus-induced allergic pulmonary inflammation To establish the model, mice were treated with 10 μg of A. fumigatus crude antigen extract (Greer Laboratories, Cat # XPM3D3A4, Lenoir, NC, USA) with fungal substance inactivated. 0.2 ml of incomplete Freund's adjuvant (Sigma-Aldrich, Cat # F5506-6X) in regular saline It was dissolved and mixed, and half of the preparation was deposited in the peritoneal cavity and the rest was delivered subcutaneously. After 2 weeks, mice received 20 μg of A. fumigatus antigen dissolved in normal saline through the intranasal route, after an intranasal attack After 4 days, 20 μg of A. Fumigatus antigen dissolved in normal saline was treated via the endotracheal route. Control mice were administered only saline at the same time point in time through the same route and treated with the same number of conidia. […]

Row | SMILES | viability at 5 µM [1] | viability at 10 µM [1] | viability at 10 µM [2] | viability at 20 µM [2] | viability [2] | AKT serine phosphorylation [3] | viability at 0.5 µM (SARS-CoV2 virus) | inhibition of calcium release through BI-1 (TMBIM6-GCaMP3 fluorescence) (BI-1 (TMBIM6)) | all BAL inflammatory cells (BAL inflammatory cells)
1 | O=C(/C=C/c1cccc([N+](=O)[O-])c1)c1ccccc1 [GM-90128, (E)-3-(3-nitrophenyl)-1-phenylprop-2-en-1-one] | 102% | 57.8% | 81% | 72.2% | 62.2% | inhibited |  |  | 
2 | Nc1ccccc1C(=O)/C=C/c1cccc([N+](=O)[O-])c1 [GM-90129, (E)-1-(2-aminophenyl)-3-(3-nitrophenyl)prop-2-en-1-one] |  |  | 91.4% | 90.2% | 61.4% |  | 77.7 ± 3.6% |  | 
3 | Nc1ccccc1C(=O)/C=C/c1ccncc1 [GM-90228, (E)-1-(2-aminophenyl)-3-(pyridin-4-yl)prop-2-en-1-one] | 30.4% | 22.8% | 54.1% | 37.8% | 15.1% |  | 74.3 ± 3.43% |  | 
4 | COc1cc(N)c(C(=O)/C=C/c2cccc([N+](=O)[O-])c2)cc1OC [GM-90254, (E)-1-(2-amino-4,5-dimethoxyphenyl)-3-(3-nitrophenyl)prop-2-en-1-one] | 14.7% | 8.59% | 61.1% | 31.5% | 8.51% |  |  | stronger inhibitory effect | 
5 | CCOc1cccc(/C=C/C(=O)c2ccccc2N)c1 [GM-90295, (E)-1-(2-aminophenyl)-3-(3-ethoxyphenyl)prop-2-en-1-one] | 103% | 82.4% | 91.7% | 86.7% | 84.7% |  |  | stronger inhibitory effect | 
6 | Nc1ccccc1C(=O)/C=C/c1cccc(C(=O)O)c1 [GM-90296, (E)-3-(3-(2-aminophenyl)-3-oxoprop-1-en-1-yl)benzoic acid] | 107% | 91.6% | 91% | 82.3% | 76.9% |  |  | stronger inhibitory effect | 
7 | Nc1ccc(F)cc1C(=O)/C=C/c1cccc([N+](=O)[O-])c1 [GM-90298, (E)-1-(2-amino-5-fluorophenyl)-3-(3-nitrophenyl)prop-2-en-1-one] | 21.2% | 19% | 68.9% | 62.3% | 48.7% |  |  | stronger inhibitory effect | 
8 | CC(C)(C)OC(=O)Nc1cccc(/C=C/C(=O)c2ccccc2N)c1 [GM-90299, tert-butyl (E)-(3-(3-(2-aminophenyl)-3-oxoprop-1-en-1-yl)phenyl) carbamate] | 93.2% | 20.1% | 82.2% | 59% | 17.2% |  |  | stronger inhibitory effect | 
9 | Nc1ccccc1C(=O)/C=C/c1cccc(F)c1 [GM-90318, (E)-1-(2-aminophenyl)-3-(3-fluorophenyl)prop-2-en-1-one] | 21.4% | 11.8% |  |  |  |  |  | stronger inhibitory effect | 
10 | N/C(=N\O)c1cccc(/C=C/C(=O)c2ccccc2N)c1 [GM-90338, (Z)-3-((E)-3-(2-aminophenyl)-3-oxoprop-1-en-1-yl)-N′-hydroxy Benzimidamide] | 44.7% | 10.5% | 42.8% | 31.9% | 11.1% |  |  | stronger inhibitory effect | 
11 | Nc1ccccc1-c1cc(-c2cccc(C(F)(F)F)c2)on1 [GM-90340, 2-(5-(3-(trifluoromethyl)phenyl)isoxazol-3-yl)aniline] | 88.7% | 80.2% | 92.9% | 89.3% | 76.1% |  |  |  | 
12 | Cc1ccccc1-n1c(Cn2cnc3c(N)ncnc32)nc2cccc(C)c2c1=O [IC87114, reference compound] |  |  |  |  |  |  |  |  | inhibited
